# Patent US20080299109A1, “MECHANISM OF ASTRICYTE-NEURON SIGNALING” (Korea Institute of Science and Technology, priority 2007, published 2008)
# Assays:
# CA1 pyramidal cells [1] = assay: Voltage clamp of CA1 pyramidal cells in hippocampal slices, low Mg2+; type: cell-based, rat; details: −60 mV, thrombin 30 nM, TFLLR 30 μM, with and without APV
# synaptic NMDA receptors = assay: Evoked NMDA EPSC current-voltage relationship in CA1 pyramidal cells; type: cell-based, rat; details: 30 nM thrombin, 0.2 mM Mg^2+
# Procedure: (§1) Young rats (Sprague-Dawley, age P15-P20) or mice (C57/B16, age P14-19) were deeply anesthetized with isoflurane and decapitated. The brain was rapidly removed and submerged in an ice-cold oxygenated artificial cerebrospinal fluid (ACSF) comprised of 130 mM NaCl, 24 mM NaHCO3, 3.5 mM KCl, 1.25 mM NaH2PO4, 1 mM CaCl2,3 mM MgCl2, and 10 mM glucose saturated with 95% O2/5% CO2, at pH 7.4.
# Slices were placed on the stage of an upright microscope underneath a platinum and nylon restraining grid, and superfused with oxygenated ACSF at room temperature (23° C.), some experiments are performed at 34° C. by a temperature controller (TC-344B, Warner, Hamden). The standard ACSF recording solution was comprised of 130 mM NaCl, 24 mM NaHCO3, 3.5 mM KCl, 1.25 mM NaH2PO4, 1.5 mM CaCl2, 1.5 mM MgCl2, and 10 mM glucose saturated with 95% O2/5% CO2, at pH 7.4. […]
# Synaptic responses were evoked by applying 0.1 ms current injection (1-100 μA) to a bipolar stimulating electrode placed in the stratum radiatum. Thrombin (Calbiochem) concentration was determined as described by Gingrich et al. (2000) using conversion of 1 U/ml=10 nM. […]
# EPSCs were evoked by electrical stimulation of Schaffer collateral axons in the CA1 stratum radiatum, and recorded from CA1 pyramidal neurons under voltage clamp. […]
# NR1/NR2A receptors = target: T1, NR1/NR2A receptors (Homo sapiens, UniProt Q05586+Q12879); assay: Glutamate-induced currents in NR1/NR2A transfected HEK 293 cells, perforated patch; type: cell-based; details: 30 nM thrombin 30 s, −60 mV and +60 mV
# T1 construct: expressed in transfected cells; host or cells: HEK 293 cells
# Procedure: Whole-cell perforated-patch recording from cultured cortical neurons or HEK cells under voltage clamp (holding potential −60 mV) was made with an Axopatch 200B amplifier (Axon Instruments, Union City, Calif.). The recording chamber was continually perfused with a recording solution comprised of 150 mM NaCl, 3 mM KCl, 2 mM CaCl2, 5.5 mM glucose, and 10 mM HEPES (pH 7.4 by NaOH; osmolality adjusted to 315-320 mOsm with sucrose). Recording electrodes (4-7 MΩ) were filled with (in mM) 150 mM CsMeSO4, 10 mM NaCl, 0.5 CaCl2, 10 mM HEPES, and 25-50 μg/ml gramicidin D (pH adjusted to 7.3 with CsOH and osmolality adjusted to 310 mOsm with sucrose). It took 20-30 min to achieve acceptable perforation with series resistance ranging from 30-60 MΩ. All electrophysiological data from cultured neurons cells in this study were collected at room temperature (23-26° C.).
# The external solution included 0.2 mM MgCl2, 2 mM CaCl2, 100 nM ZnCl2, and 50 μM glycine. […] The response from the same cell is shown after a treatment of 30 nM thrombin for 30 s. […] The peak amplitudes of glutamate-induced currents were compared before and after thrombin treatment at −60 mV and +60 mV holding potentials.
# CA1 pyramidal cells [2] = assay: Current clamp membrane potential of CA1 pyramidal cells in hippocampal slices; type: cell-based, rat; details: 30 nM thrombin
# Procedure: as §1
# The hemisected brain was glued onto the stage of a vibrating microtome (Leica VT1000 S) and sections of 300 μm thickness were cut and stored in an incubation chamber at room temperature for about 1 h before use. For voltage clamp experiments, the solution used to fill the electrodes was comprised of 140 mM Cs-MeSO4, 10 mM HEPES, 7 mM NaCl, 4 mM Mg-ATP, and 0.3 mM Na3-GTP; the solution for current clamp recordings was comprised of 140 mM K-MeSO4, 10 mM HEPES, 7 mM NaCl, 4 mM Mg-ATP, and 0.3 mM Na3-GTP, and supplemented with 1 mM QX314; and 1 mM QX314 was omitted from some current clamp recordings (e.g., FIG. 9e).
# Slices were placed on the stage of an upright microscope underneath a platinum and nylon restraining grid, and superfused with oxygenated ACSF at room temperature (23° C.), some experiments are performed at 34° C. by a temperature controller (TC-344B, Warner, Hamden). The standard ACSF recording solution was comprised of 130 mM NaCl, 24 mM NaHCO3, 3.5 mM KCl, 1.25 mM NaH2PO4, 1.5 mM CaCl2, 1.5 mM MgCl2, and 10 mM glucose saturated with 95% O2/5% CO2, at pH 7.4. For some experiments 0.5-1 μM TTX, 10 μM NBQX, or 10-20 μM bicuculline were added to the extracellular solution, extracellular Mg^2+ was reduced to 5 μM, and/or extracellular Ca^2+ raised to 2 mM.
# Visually guided whole-cell patch recordings were obtained from CA1 pyramidal neurons in a voltage clamp or current clamp configuration using an Axopatch 200A (Axon Instruments) and a borosilicate patch pipette of 5-7 MΩ resistance. […] Records were filtered at 5 kHz and digitized at 20 kHz using a Digidata 1200 A/D board.
# Synaptic responses were evoked by applying 0.1 ms current injection (1-100 μA) to a bipolar stimulating electrode placed in the stratum radiatum. Thrombin (Calbiochem) concentration was determined as described by Gingrich et al. (2000) using conversion of 1 U/ml=10 nM. TFLLR and thrombin were applied by gravity perfusion at 1.0 ml/min, with extensive washing of perfusion lines, chamber, and objective between experiments to remove all residual thrombin, which has been reported to irreversibly cleave and PAR1 at a pM concentration. Removal of all thrombin ensured that PAR1 receptors were not pre-cleaved by residual thrombin prior to experimentation.
# T1 sequence (Q12879 23-1464, other chains not shown): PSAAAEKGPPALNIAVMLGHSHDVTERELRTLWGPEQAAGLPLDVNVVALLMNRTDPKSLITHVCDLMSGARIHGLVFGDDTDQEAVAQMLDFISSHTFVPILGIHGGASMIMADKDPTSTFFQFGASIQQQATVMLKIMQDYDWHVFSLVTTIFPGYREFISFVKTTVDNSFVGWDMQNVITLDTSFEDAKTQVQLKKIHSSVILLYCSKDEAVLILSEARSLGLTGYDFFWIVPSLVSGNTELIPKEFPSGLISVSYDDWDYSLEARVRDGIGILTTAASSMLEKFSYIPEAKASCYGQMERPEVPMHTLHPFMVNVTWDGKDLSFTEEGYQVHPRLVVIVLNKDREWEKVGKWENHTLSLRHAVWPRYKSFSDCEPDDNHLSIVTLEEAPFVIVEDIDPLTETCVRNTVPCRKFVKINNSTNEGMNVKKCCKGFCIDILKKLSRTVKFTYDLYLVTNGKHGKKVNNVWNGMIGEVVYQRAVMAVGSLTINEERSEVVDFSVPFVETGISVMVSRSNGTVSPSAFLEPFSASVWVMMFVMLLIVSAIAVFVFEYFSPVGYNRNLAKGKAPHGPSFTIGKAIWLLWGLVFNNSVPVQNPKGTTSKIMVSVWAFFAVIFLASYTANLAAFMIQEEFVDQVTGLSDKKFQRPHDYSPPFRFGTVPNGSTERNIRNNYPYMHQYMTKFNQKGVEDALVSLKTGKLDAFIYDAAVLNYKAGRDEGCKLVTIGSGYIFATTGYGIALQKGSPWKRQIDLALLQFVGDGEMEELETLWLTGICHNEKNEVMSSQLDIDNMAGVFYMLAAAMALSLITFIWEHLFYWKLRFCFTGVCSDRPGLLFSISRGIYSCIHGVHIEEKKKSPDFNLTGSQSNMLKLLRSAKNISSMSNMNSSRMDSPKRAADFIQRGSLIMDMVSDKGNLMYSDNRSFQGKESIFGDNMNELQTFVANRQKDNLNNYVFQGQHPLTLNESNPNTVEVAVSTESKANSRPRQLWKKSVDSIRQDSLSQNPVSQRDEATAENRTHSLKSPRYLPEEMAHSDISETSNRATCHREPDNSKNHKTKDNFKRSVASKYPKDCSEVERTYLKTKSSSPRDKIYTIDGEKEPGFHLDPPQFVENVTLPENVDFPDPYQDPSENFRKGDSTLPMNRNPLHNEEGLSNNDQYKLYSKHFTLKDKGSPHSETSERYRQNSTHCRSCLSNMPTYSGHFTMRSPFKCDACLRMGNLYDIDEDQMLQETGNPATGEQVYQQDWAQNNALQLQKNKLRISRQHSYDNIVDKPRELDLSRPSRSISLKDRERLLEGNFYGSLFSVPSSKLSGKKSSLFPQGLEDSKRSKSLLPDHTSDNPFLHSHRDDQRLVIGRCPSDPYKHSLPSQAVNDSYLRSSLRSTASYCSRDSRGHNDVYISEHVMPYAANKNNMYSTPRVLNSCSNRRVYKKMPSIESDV
substance,measurement,setting,value
thrombin,amplitude of inward current,"CA1 pyramidal cells [1]; 0.5 μM TTX, 5 μM Mg^2+",8.8±3.1 pA
same,membrane current variance,"CA1 pyramidal cells [1]; TTX, low Mg^2+",12.4±1.1 pA^2
same,Mg^2+ block of NMDA EPSCs at −60 mV,synaptic NMDA receptors,significantly less Mg^2+ block
same,glutamate-induced current profile before and after thrombin,NR1/NR2A receptors,no change
same,membrane depolarization,"CA1 pyramidal cells [2]; 1.5 mM Mg^2+, n=22",5.7±0.9 mV
same,depolarization of the membrane potential at 23° C.,CA1 pyramidal cells [2]; with or without APV 100 μM,5.8±1.7 mV
same,depolarization of the membrane potential at 34° C.,CA1 pyramidal cells [2]; with or without APV 100 μM,4.3±1.0 mV
